Test results taken from patent US8716242B2, “β-hairpin peptidomimetics” (priority 2009, dated 2014).
Like-named read-outs stand apart in the source and are kept apart here. Bridge positions count the residues as written; N and C are the ends. Square brackets hold non-standard residues; d marks the D form. Peptide text beside a SMILES is read from it. * marks the point of attachment. Benzoyl(4-dodecyloxy) = CCCCCCCCCCCCOc1ccc(C(=O)*)cc1; Benzoyl(4-octyloxy) = CCCCCCCCOc1ccc(C(=O)*)cc1; Octyloxycarbonyl = CCCCCCCCOC(=O)*; Stearoyl = CCCCCCCCCCCCCCCCCC(=O)*; Myristoyl = CCCCCCCCCCCCCC(=O)*; Decanoyl = CCCCCCCCCC(=O)*; Dab = NCC[C@H](N)C(=O)O; Dodecyl = CCCCCCCCCCCC*

Legend:
human CXCR4 = target: T1, human CXCR4 (Homo sapiens, UniProt P61073); experiment: Ca2+-assay: CXCR4-antagonizing activity (SDF-1 induced calcium mobilization); assay type: cell-based
T1 construct: expressed in transfected cells; host or cells: mouse pre-B cell line 300-19
From the text: 2.3. Ca^2+-Assay: CXCR4-Antagonizing Activity of the Peptides
Increases in intracellular calcium were monitored using a Flexstation 384 (Molecular Devices, Sunnyvale, Calif.) to assay the peptides for CXCR4 antagonism in a mouse pre-B cell line 300-19 stably transfected with human CXCR4 (E. Oberlin, A. Amara, F. Bachelerie, C. Bessia, J.-L. Virelizier, F. Arenzana-Seisdedos, O, Schwartz, J.-M. Heard, I. Clark-Lewis, D. F. Legler, M. Loetscher, M. Baggiolini, B. Moser, Nature 1996, 382, 833-835; M. Loetscher, T. Geiser, T. O'Reilly, R. Zwalen, M. Baggiolini, B. Moser, J. Biol. Chem. 1994, 269, 232-237; M. D'Apuuo, A. Rolink, M. Loetscher, J. A. Hoxie, I. Clark-Lewis, F. Melchors, M. Baggiolini, B. Moser, Eur. J. Immunol. 1997, 27, 1788-1793). The cells were batch loaded with the Calcium 4 Assay kit (Molecular Devices) in assay buffer (Hanks Balanced salt solution [HBSS], 20 mM HEPES, pH 7.4, 0.1% BSA) for 1 h at room temperature and labeled cells were dispensed into black well assays plates (Costar No. 3603). Calcium mobilization induced by stromal-derived factor-1 (SDF-1) was measured in the Flexstation 384 (excitation: 485 nm; emission: 525 nm) for 90 seconds. Antagonist activity of peptides was determined by spiking the cells with compounds prior to SDF-1 addition. Dose response curves (compound concentration versus % maximum response for SDF-1) were determined for each antagonist and IC50 values were calculated by fitting the data to a four parameter logistic equation using SoftmaxPro 4.8 (Molecular Devices).

[1] = Cytotoxicity, MTT reduction assay, HELA cells; assay type: cell-based; conditions: human, HELA cells (Acc57), 12.5-50 μM
In short: (§1)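 HELA (4000/well) and COS-7 (3400/well) cells were grown 24 h, then exposed 48 h at 37° C to peptides at 12.5, 25 and 50 μM in triplicate. MTT reduction read at 595 nm; growth % relative to time-zero, and GI50 interpolated by trend line.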

[2] = Cytotoxicity, MTT reduction assay, COS-7 cells; assay type: cell-based; conditions: African green monkey, COS-7 cells (CRL-1651), 12.5-50 μM
In short: as §1

[3] = test system: human red blood cells (hRBC); experiment: Hemolysis of human red blood cells; assay type: cell-based; conditions: 20% hRBC, 1 h, 37° C.
Experimental: The peptides were tested for their hemolytic activity against human red blood cells (hRBC). Fresh hRBC were washed three times with phosphate buffered saline (PBS) and centrifuged for 10 min at 2000×g. Compounds (100 μM) were incubated with 20% hRBC (v/v) for 1 h at 37° C. and shaking at 300 rpm. The final erythrocyte concentration was approximately 0.9×10^9 cells/mL. A value of 0% and 100% cell lyses, respectively, was determined by incubation of hRBC in the presence of PBS containing 0.001% acetic acid and 2.5% Triton X-100 in H2O, respectively. The samples were centrifuged, the supernatants were 8-fold diluted in PBS buffer and the optical densities (OD) were measured at 540 nm. The 100% lyses value (OD540H2O) gave an OD540 of approximately 0.5-1.0.
Percent hemolysis was calculated as follows: (OD540peptide/OD540H2O)×100%. 2.6. Plasma Stability

[4] = Plasma stability in human plasma; assay type: in vitro ADME; conditions: human plasma, 37° C.; for remaining at 24 h, 10 μM: 1440 min, read-out: human pl. cpd left at 1440 min
In short: (§2)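 Peptides (1 mM DMSO/H2O stock) were spiked into human or mouse plasma in triplicate and incubated at 37 °C, sampling from 0 to 1440 min. Samples were quenched in formic acid/acetonitrile and analysed by LC/MS MRM. Remaining percent of t=0 was calculated and T1/2 derived by trend fitting.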

[5] = Plasma stability in mouse plasma; assay type: in vitro ADME; conditions: mouse plasma, 37° C.; for remaining at 24 h, 10 μM: 1440 min, read-out: mouse pl. cpd left at 1440 min
In short: as §2

[6] = mouse pre-B cell line 300-19 transfected with human CXCR4, SDF-1 induced Ca2+ mobilization, read-out: IC50% [nM] ± SD, CXCR4 receptor

T1 sequence (P61073 whole entry): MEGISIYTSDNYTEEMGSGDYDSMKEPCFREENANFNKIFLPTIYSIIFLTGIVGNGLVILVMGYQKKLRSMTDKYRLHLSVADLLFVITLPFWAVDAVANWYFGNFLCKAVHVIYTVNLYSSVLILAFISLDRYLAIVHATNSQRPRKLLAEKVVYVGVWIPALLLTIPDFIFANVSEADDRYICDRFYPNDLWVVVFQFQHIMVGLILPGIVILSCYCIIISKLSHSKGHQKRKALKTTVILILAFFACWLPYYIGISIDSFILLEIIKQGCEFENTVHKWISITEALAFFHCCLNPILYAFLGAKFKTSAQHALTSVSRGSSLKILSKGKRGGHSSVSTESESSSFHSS

Compound | IC50 (human CXCR4; [6]) | GI50 at 48 h [1] | GI50 at 48 h [2] | Hemolysis at 100 μM [3] | remaining at 24 h, 10 μM [4] | human pl. T1/2 ([4]; up to 1440 min) | remaining at 24 h, 10 μM [5] | mouse pl. T1/2 ([5]; up to 1440 min) | IC50 (human CXCR4) | half-life at 10 μM ([4]; up to 1440 min, read-out: human pl. T1/2) | half-life at 10 μM ([5]; up to 1440 min, read-out: mouse pl. T1/2)
CCCCCCCCCC(=O)NCC[C@@H]1NC(=O)[C@H](Cc2ccc(O)cc2)NC(=O)[C@@H]2CSSC[C@H](NC(=O)[C@H](C)NC(=O)[C@H](Cc3c[nH]cn3)NC(=O)[C@H](Cc3ccc(O)cc3)NC(=O)[C@@H]3CCCN3C(=O)[C@H]3CCCN3C(=O)[C@H](CCCCN)NC1=O)C(=O)N[C@@H](CCCNC(=N)N)C(=O)N[C@@H](C)C(=O)N1CCC[C@@H]1C(=O)N[C@@H](CCN)C(=O)N[C@@H](CCCNC(=N)N)C(=O)N[C@@H](Cc1ccc(O)cc1)C(=O)N2 [Ex. 10] (cyclo(YHACRA[dP][Dab]RYCY[Dab](Decanoyl)K[dP]P); disulfide 4-11) | 8.1 ± 0.9 nM | > 50 µM | > 50 µM | 1.0% | 85% | 24 h | 63% | 24 h |  |  | 
CCCCCCCCOc1ccc(C(=O)NCCCC[C@@H]2NC(=O)[C@H](Cc3ccc(O)cc3)NC(=O)[C@@H]3CSSC[C@H](NC(=O)[C@H](C)NC(=O)[C@H](Cc4c[nH]cn4)NC(=O)[C@H](Cc4ccc(O)cc4)NC(=O)[C@@H]4CCCN4C(=O)[C@H]4CCCN4C(=O)[C@H](CCCCN)NC2=O)C(=O)N[C@@H](CCCNC(=N)N)C(=O)N[C@@H](C)C(=O)N2CCC[C@@H]2C(=O)N[C@@H](CCN)C(=O)N[C@@H](CCCNC(=N)N)C(=O)N[C@@H](Cc2ccc(O)cc2)C(=O)N3)cc1 [Ex. 23] (cyclo(YHACRA[dP][Dab]RYCYK(Benzoyl(4-octyloxy))K[dP]P); disulfide 4-11) |  | > 22 µM | > 50 µM | 7.8% | 100% | 24 h | 74% | 24 h | 8.3 ± 3.2 nM |  | 
CCCCCCCCCCCCCCCCCC(=O)NCCCC[C@@H]1NC(=O)[C@H](Cc2ccc(O)cc2)NC(=O)[C@@H]2CSSC[C@H](NC(=O)[C@H](Cc3ccc(O)cc3)NC(=O)[C@H](Cc3c[nH]cn3)NC(=O)[C@H](Cc3ccc(O)cc3)NC(=O)[C@@H]3CCCN3C(=O)[C@H]3CCCN3C(=O)[C@H](CCCCN)NC1=O)C(=O)N[C@@H](CO)C(=O)N[C@@H](C)C(=O)N1CCC[C@@H]1C(=O)N[C@@H](CCN)C(=O)N[C@@H](CCCNC(=N)N)C(=O)N[C@@H](Cc1ccc(O)cc1)C(=O)N2 [Ex. 22] (cyclo(YHYCSA[dP][Dab]RYCYK(Stearoyl)K[dP]P); disulfide 4-11) | 7.3 ± 3 nM | > 35 µM | > 50 µM | 9.6% | 72% | 24 h | 82% | 24 h |  |  | 
CCCCCCCCCCCCCC(=O)NCCCC[C@@H]1NC(=O)[C@H](Cc2ccc(O)cc2)NC(=O)[C@@H]2CSSC[C@H](NC(=O)[C@H](Cc3ccc(O)cc3)NC(=O)[C@H](Cc3c[nH]cn3)NC(=O)[C@H](Cc3ccc(O)cc3)NC(=O)[C@@H]3CCCN3C(=O)[C@H]3CCCN3C(=O)[C@H](CCCCN)NC1=O)C(=O)N[C@@H](CO)C(=O)N[C@@H](C)C(=O)N1CCC[C@@H]1C(=O)N[C@@H](CCN)C(=O)N[C@@H](CCCNC(=N)N)C(=O)N[C@@H](Cc1ccc(O)cc1)C(=O)N2 [Ex. 18] (cyclo(YHYCSA[dP][Dab]RYCYK(Myristoyl)K[dP]P); disulfide 4-11) | 15.7 ± 3.9 nM | > 25 µM | > 50 µM | 9.2% | 71% | 24 h | 78% | 24 h |  |  | 
CCCCCCCCCCCCCC(=O)NCCCC[C@@H]1NC(=O)[C@H](Cc2ccc(O)cc2)NC(=O)[C@@H]2CSSC[C@H](NC(=O)[C@H](C)NC(=O)[C@H](Cc3c[nH]cn3)NC(=O)[C@H](Cc3ccc(O)cc3)NC(=O)[C@@H]3CCCN3C(=O)[C@H]3CCCN3C(=O)[C@H](CCCCN)NC1=O)C(=O)N[C@@H](CCCNC(=N)N)C(=O)N[C@@H](C)C(=O)N1CCC[C@@H]1C(=O)N[C@@H](CCN)C(=O)N[C@@H](CCCNC(=N)N)C(=O)N[C@@H](Cc1ccc(O)cc1)C(=O)N2 [Ex. 19] (cyclo(YHACRA[dP][Dab]RYCYK(Myristoyl)K[dP]P); disulfide 4-11) | 9.1 ± 4.2 nM | > 32 µM | > 50 µM | 1.2% | 99% | 24 h | 76% | 24 h |  |  | 
CCCCCCCCOC(=O)NC(=N)NCCC[C@@H]1NC(=O)[C@H](CCN)NC(=O)[C@H]2CCCN2C(=O)[C@H](C)NC(=O)[C@H](CO)NC(=O)[C@@H]2CSSC[C@H](NC(=O)[C@H](Cc3ccc(O)cc3)NC1=O)C(=O)N[C@@H](Cc1ccc(O)cc1)C(=O)N[C@@H](CCC(N)=O)C(=O)N[C@@H](CCCCN)C(=O)N1CCC[C@@H]1C(=O)N1CCC[C@H]1C(=O)N[C@@H](Cc1ccc(O)cc1)C(=O)N[C@@H](Cc1c[nH]cn1)C(=O)N[C@@H](Cc1ccc(O)cc1)C(=O)N2 [compound 6] (cyclo(YHYCSA[dP][Dab]R(Octyloxycarbonyl)YCYQK[dP]P); disulfide 4-11) | 28.5 ± 9 nM | > 10 µM | > 35 µM | 0.7% | 76% | 24 h | 92% | 24 h |  |  | 
CCCCCCCCCCCCOc1ccc(C(=O)NCCCC[C@@H]2NC(=O)[C@H](Cc3ccc(O)cc3)NC(=O)[C@@H]3CSSC[C@H](NC(=O)[C@H](Cc4ccc(O)cc4)NC(=O)[C@H](Cc4c[nH]cn4)NC(=O)[C@H](Cc4ccc(O)cc4)NC(=O)[C@@H]4CCCN4C(=O)[C@H]4CCCN4C(=O)[C@H](CCCCN)NC2=O)C(=O)N[C@@H](CO)C(=O)N[C@@H](C)C(=O)N2CCC[C@@H]2C(=O)N[C@@H](CCN)C(=O)N[C@@H](CCCNC(=N)N)C(=O)N[C@@H](Cc2ccc(O)cc2)C(=O)N3)cc1 [Ex. 24] (cyclo(YHYCSA[dP][Dab]RYCYK(Benzoyl(4-dodecyloxy))K[dP]P); disulfide 4-11) |  | > 29 µM | > 50 µM | 10.9% | 24% |  | 22% |  | 6.1 ± 4.5 nM | 2.12 h | 9.27 h
CCCCCCCCCCCCOc1ccc(C[C@@H]2NC(=O)[C@H](CCCNC(=N)N)NC(=O)[C@H](CCN)NC(=O)[C@H]3CCCN3C(=O)[C@H](C)NC(=O)[C@H](CCCNC(=N)N)NC(=O)[C@@H]3CSSC[C@H](NC2=O)C(=O)N[C@@H](Cc2ccc(O)cc2)C(=O)N[C@@H](CCC(N)=O)C(=O)N[C@@H](CCCCN)C(=O)N2CCC[C@@H]2C(=O)N2CCC[C@H]2C(=O)N[C@@H](Cc2ccc(O)cc2)C(=O)N[C@@H](Cc2c[nH]cn2)C(=O)N[C@@H](C)C(=O)N3)cc1 [Ex. 7] (cyclo(YHACRA[dP][Dab]RY(Dodecyl)CYQK[dP]P); disulfide 4-11) |  | > 35 µM | > 50 µM | 11.5% | 67% | 24 h | 87% | 24 h | 59.8 ± 27 nM |  | 
